Where two headings read alike, the source gives them in different places.
Key:
Blatta orientalis = conditions: Blatta orientalis; for synergizing effect on Azamethiphos: synergist applied with Azamethiphos; for synergizing effect on Cypermethrin: synergist applied with Cypermethrin
Method: Method: Contact test on non-porous tile measuring 400 cm^2 at a temperature of 28° C. Test duration: up to 72 hours after exposure of the insect to the insecticidal active substance.
(§1) Three tests were performed in parallel, A, B, and C, as follows: • A) Comparative. 1 ml of Composition 2 was applied to the tile. After waiting for the complete evaporation of the solvent, 10 cockroaches were placed on top of the treated tile, starting the test. • B) According to the invention. 1 ml of Composition 8b was distributed on the tile. After waiting for the complete evaporation of the solvent, 1 ml of Composition 2 was added to the same tile. Subsequently, after waiting for the solvent to evaporate, 10 cockroaches were placed on top of the treated tile, starting the test. • C) According to the invention. 1 ml of Composition 8b was distributed on a tile. After waiting for the complete evaporation of the solvent, 10 cockroaches were placed for 30 minutes on top of the treated tile. At the end of the 30 minutes, the cockroaches were transferred to an untreated area.
Method: Contact test on non-porous tile measuring 400 cm^2 at a temperature of 28° C. Test duration: up to 120 hours after exposure of the insect to the insecticidal active substance.
as §1, with “4a” for “2”, “8d” for “8b”, “After” for “Subsequently, after”
Six tests were performed in parallel, A, B, C, D, E and F, as follows: • A) Comparative. 1 ml of Composition 9b was distributed on the tile. After waiting for the complete evaporation of the solvent, 1 ml of Composition 4a was added to the same tile. Subsequently, after waiting for the solvent to evaporate, 10 cockroaches were placed on top of the treated tile, starting the test. • B) Comparative. 1 ml of Composition 9b was distributed on a tile. After waiting for the complete evaporation of the solvent, 10 cockroaches were placed for 30 minutes on top of the treated tile. At the end of the 30 minutes, the cockroaches were transferred to an untreated area. […] 1 ml of Composition 10b was distributed on the tile. After waiting for the complete evaporation of the solvent, 1 ml of Composition 4a was added to the same tile. Subsequently, after waiting for the solvent to evaporate, 10 cockroaches were placed on top of the treated tile, starting the test. • D) Comparative. 1 ml of Composition 10b was distributed on a tile. After waiting for the complete evaporation of the solvent, 10 cockroaches were placed for 30 minutes on top of the treated tile. At the end of the 30 minutes, the cockroaches were transferred to an untreated area. […] 1 ml of Composition 8d was distributed on the tile. After waiting for the complete evaporation of the solvent, 1 ml of Composition 4a was added to the same tile. Subsequently, after waiting for the solvent to evaporate, 10 cockroaches were placed on top of the treated tile, starting the test. • F) According to the invention. 1 ml of Composition 8d was distributed on a tile. After waiting for the complete evaporation of the solvent, 10 cockroaches were placed for 30 minutes on top of the treated tile. At the end of the 30 minutes, the cockroaches were transferred to an untreated area.

Blattella germanica = experiment: Contact test on non-porous tile, Blattella germanica; type: in vivo; conditions: Blattella germanica; synergist applied with Imidacloprid
Method: 1 ml of Composition 36 was distributed on the tile. […] 1 ml of Composition 37 was distributed on a tile.

Compound | synergizing effect on Azamethiphos (Blatta orientalis) | synergizing effect on Cypermethrin (Blatta orientalis) | synergizing effect on Cypermethrin (Blatta orientalis; listed as oleic alcohol 95%) | synergizing effect on Imidacloprid (Blattella germanica)
CCCCCCCC/C=C\CCCCCCCCOC(C)=O [Oleyl acetate] | fine synergizing effect | excellent-fine synergizing effect |  | 
Oleic alcohol [Oleic alcohol 95%] | fine synergizing effect | fine synergizing effect | superior to that shown with PBO | fine synergizing effect
CCCCCCCCOC(=O)OCCCCCCCC [dioctyl carbonate] | good synergizing effect | synergizing effect |  | 

Reference: patent publication US20260215418A1, “HYDROCARBON ALCOHOLS AND THEIR DERIVATIVES AS SYNERGISTS IN PESTICIDE ACTIVITY” (priority 2022, published 2026)
